Laboratory results as given in patent US9907797B2, “Combination therapies for overcoming resistance to mitotic agents during chemotherapy” (EMORY UNIVERSITY, priority 2014, dated 2018).
Peptide text beside a SMILES is read from it. * marks the point of attachment. Cbz = O=C(OCc1ccccc1)*

Assays:
Type in all cases: cell-based
[1] = test system: A549, EKVX, H596, H522, Hop-62, H460 and H2023; experiment: Cytotoxicity assays with docetaxel and ABT-888 in seven lung cancer cell lines
Description: Hypothesizing that PARP-inhibition could induce synergistic cytotoxicity in CHFR expressing lung cancer cell lines, cytotoxicity assays were performed in seven lung cancer cell lines (A549, EKVX, H596, H522, Hop-62, H460 and H2023) using docetaxel and the PARP-inhibitor ABT-888 either alone or in combination.

PARP1-CHFR interaction = target: T1, PARP1-CHFR interaction (Homo sapiens, UniProt Q96EP1); experiment: Glutathione affinity pull-down of GST tagged PARP1 with CHFR in HEK293 cells; conditions: 10 uM, 16 hours
T1 construct: expressed in transfected cells; CHFR endogenous
T1 sequence (Q96EP1 1-664): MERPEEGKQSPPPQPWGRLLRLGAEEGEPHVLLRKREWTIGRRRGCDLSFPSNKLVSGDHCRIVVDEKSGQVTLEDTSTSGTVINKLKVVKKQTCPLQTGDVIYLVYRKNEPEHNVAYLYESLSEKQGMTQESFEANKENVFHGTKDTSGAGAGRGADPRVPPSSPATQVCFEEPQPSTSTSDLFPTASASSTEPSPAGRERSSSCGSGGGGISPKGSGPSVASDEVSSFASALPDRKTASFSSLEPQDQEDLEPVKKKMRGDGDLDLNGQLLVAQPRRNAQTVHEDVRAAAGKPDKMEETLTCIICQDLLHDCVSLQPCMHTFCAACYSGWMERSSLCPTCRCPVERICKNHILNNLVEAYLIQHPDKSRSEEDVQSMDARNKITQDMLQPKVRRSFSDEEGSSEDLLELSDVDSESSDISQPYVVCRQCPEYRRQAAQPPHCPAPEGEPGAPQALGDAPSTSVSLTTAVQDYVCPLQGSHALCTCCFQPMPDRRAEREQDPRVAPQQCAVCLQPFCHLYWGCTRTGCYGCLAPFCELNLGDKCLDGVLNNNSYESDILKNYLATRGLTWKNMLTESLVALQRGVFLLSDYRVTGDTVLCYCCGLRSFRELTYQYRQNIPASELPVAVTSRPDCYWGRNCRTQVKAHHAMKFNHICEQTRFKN
Description: In an attempt to generate possible lead compounds for the pharmacologic inhibition of the CHFR-PARP1 interaction, a high throughput computational screen of 5,256,508 chemical structures in the MCULE database of purchasable compounds using the AutoDockVina algorithm against the published crystal structure of the CHFR-PBZ domain was performed. The 10 most promising ‘hits’ based on Autodock Vina docking scores (<−9.7) were selected for further characterization. Commercially available compounds were tested for their impact on nuclear CHFR levels (FIG. 3A). Several compounds, including ‘A2’, ‘A3’, ‘A4’ and ‘A6’ decreased CHFR levels assayed by western blotting of whole cell extracts. The impact of the above referenced compounds on the PARP1/CHFR interaction were evaluated. HEK293 cells were transfected with GST tagged PARP1 and the interaction with CHFR determined in pull down assays for those 4 compounds. […] In contrast to treatment with ABT-888, ‘A3’ completely disrupted the interaction between GST-tagged PARP-1 and CHFR (FIG. 3B). […] Since it is possible that the co-immunoprecipitation between PARP-1 and CHFR after ‘A3’ treatment was negative due to the fact that CHFR was degraded, the experiment was repeated after transfection with the Ring-domain deleted ΔR-CHFR construct, which maintained both stable CHFR and PARP1 levels even after treatment with ‘A3’. […]

CHFR = experiment: wt-CHFR and CHFR-PBZ* protein levels in transfected Calu-6 cells
Text: To determine if disruption of the CHFR-PARP1 interaction forces CHFR degradation by auto-ubiquitination and subsequent proteasomal degradation, wild-type and the CHFR-PBZ mutant were expressed in the presence and absence of the proteasome inhibitor MG-132 (FIG. 1H) or after the additional deletion of the RING domain (FIG. 1I) in Calu-6 cells.

Calu-6 NSCLC cells = experiment: XTT assay with docetaxel in transfected Calu-6 cells; conditions: docetaxel 72 hours, Calu-6 with wt-CHFR vs empty vector and CHFR-PBZ*, p<0.05
Description: The effect of Docetaxel after 72 hours was established by XTT assay.
In Hela cells, full length, but not PBZ-mutant CHFR has similar cell cycle effects. To determine the functional relevance of the PBZ domain on taxane resistance in NSCLC CHFR deficient CALU-6 cells were transfected with either with full-length CHFR (pDEST40-wt-CHFR) or PBZ mutant CHFR (pDEST40-CHFR-PBZ*).

CHFR-PARP1 interaction = experiment: Interaction between GST-tagged PARP1 and CHFR in synchronized cells; conditions: microtubular damage induced with docetaxel, G2/M phase
Description: (§1) The functional significance of the interaction between CHFR and PARP1 in antephase checkpoint control and taxane sensitivity was evaluated. HEK293 cells were transfected with a GST-tagged PARP1, synchronized with aphidocholin, and the interaction between GST-tagged PARP1 and CHFR was analyzed at various stages of the cell cycle (FIG. 2A, 2B). […] To determine the effect on taxane sensitivity, XTT assays were performed in A549 cells stably transfected with either shRNAs specifically targeting CHFR or PARP1 or control shRNAs (scrambled or luciferase targeting respectively).

A549 cells = experiment: XTT assays with docetaxel in A549 cells stably transfected with shRNAs
Description: as §1

For `C[C@]1(c2nc3c(C(N)=O)cccc3[nH]2)CCCN1` [ABT-888], the “cytostasis, docetaxel combined with ABT-888” value ([1]; ABT-888 20 uM) was “did not lead to enhanced cytostasis”, the “synergy of docetaxel and ABT-888, cytotoxicity” value ([1]; seven lung cancer cell lines, alone or in combination) was “Synergy was not observed in any of the cell lines” and the “interaction between PARP1 and CHFR” value (PARP1-CHFR interaction) was “nor did it disrupt the interaction between CHFR and PARP-1”. The CHFR protein levels (CHFR; Calu-6 cells, wt-CHFR or CHFR-PBZ*) was “did not result in altered CHFR protein levels”.

With `CC(C)C[C@@H](C=O)NC(=O)[C@H](CC(C)C)NC(=O)[C@H](CC(C)C)NC(=O)OCc1ccccc1` [MG-132] (Cbz-Leu-Leu-Leu-aldehyde) the “CHFR-PBZ* protein levels” value (CHFR; Calu-6 cells stably transfected with CHFR-PBZ*, proteasomal inhibition) was “increases CHFR-PBZ* protein levels”.

With `CC(=O)O[C@@]12CO[C@@H]1C[C@H](O)[C@@]1(C)C(=O)[C@H](O)C3=C(C)[C@@H](OC(=O)[C@H](O)[C@@H](NC(=O)OC(C)(C)C)c4ccccc4)C[C@@](O)([C@@H](OC(=O)c4ccccc4)[C@H]21)C3(C)C` [docetaxel] the “taxane resistance (XTT)” value (Calu-6 NSCLC cells) was “Stable transfection of wt-CHFR increases taxane resistance”, the “interaction between GST-tagged PARP1 and CHFR” value (CHFR-PARP1 interaction) was “further enhances this interaction” and the “sensitivity to docetaxel (XTT)” value (A549 cells; CHFR-deficient A549 cells relative to scrambled control) was “increased sensitivity to docetaxel”. For the same molecule, the “sensitivity to docetaxel (XTT)” value (A549 cells; PARP1 deficient A549 cells relative to control shRNA) was “also showed increased sensitivity to docetaxel”.
